In ChEMBL document CHEMBL1201862, “PubChem BioAssay data set” (2004) one finds EC50 and AC50 data, which are given here for 26 compounds.

In assay [1] the target is T1, Zinc finger protein mex-5 (Caenorhabditis elegans, UniProt Q9XUB2).
T1 sequence (Q9XUB2 whole entry): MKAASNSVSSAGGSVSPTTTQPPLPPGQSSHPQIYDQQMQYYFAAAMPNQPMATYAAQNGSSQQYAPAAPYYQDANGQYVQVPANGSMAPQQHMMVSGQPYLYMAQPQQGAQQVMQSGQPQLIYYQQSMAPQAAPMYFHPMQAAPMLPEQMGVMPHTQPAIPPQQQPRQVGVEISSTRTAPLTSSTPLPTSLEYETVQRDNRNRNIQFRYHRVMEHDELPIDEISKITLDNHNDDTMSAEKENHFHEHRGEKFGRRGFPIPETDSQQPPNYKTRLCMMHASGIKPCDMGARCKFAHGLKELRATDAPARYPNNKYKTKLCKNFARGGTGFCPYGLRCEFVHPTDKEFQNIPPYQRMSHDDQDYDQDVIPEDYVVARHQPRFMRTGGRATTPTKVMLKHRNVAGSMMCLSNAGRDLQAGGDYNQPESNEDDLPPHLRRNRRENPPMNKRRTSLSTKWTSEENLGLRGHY
The assay can be described thus: MEX-5/TCR-2 RNA interaction inhibitors, dose response, biochemical, C. elegans, fluorescence polarization (AID 1960).

Assay [2] addresses T2, RNA-binding protein pos-1 (Caenorhabditis elegans, UniProt G5EF15).
T2 sequence (G5EF15 whole entry): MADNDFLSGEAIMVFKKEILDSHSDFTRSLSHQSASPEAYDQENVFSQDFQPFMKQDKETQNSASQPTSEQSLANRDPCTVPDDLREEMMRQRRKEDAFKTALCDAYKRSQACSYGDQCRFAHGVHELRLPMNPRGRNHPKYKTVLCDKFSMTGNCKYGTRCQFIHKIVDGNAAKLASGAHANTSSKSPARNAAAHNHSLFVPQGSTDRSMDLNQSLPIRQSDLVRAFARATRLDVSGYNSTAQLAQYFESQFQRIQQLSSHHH
As to the kind of experiment: inhibitors of POS-1/mex-3 RNA binding, dose response, biochemical, fluorescence polarization (AID 1964).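 Further: purified POS-1 fused to maltose binding protein made in E. coli; potency of compounds blocking POS-1 binding to fluorescent RNA.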 In general terms: Fluorescence polarisation rises when a labelled molecule tumbles more slowly, as on binding a larger partner.

Assay [3] addresses T3, Heat shock factor protein 1 (Mus musculus, UniProt P38532).
T3 sequence (P38532 whole entry): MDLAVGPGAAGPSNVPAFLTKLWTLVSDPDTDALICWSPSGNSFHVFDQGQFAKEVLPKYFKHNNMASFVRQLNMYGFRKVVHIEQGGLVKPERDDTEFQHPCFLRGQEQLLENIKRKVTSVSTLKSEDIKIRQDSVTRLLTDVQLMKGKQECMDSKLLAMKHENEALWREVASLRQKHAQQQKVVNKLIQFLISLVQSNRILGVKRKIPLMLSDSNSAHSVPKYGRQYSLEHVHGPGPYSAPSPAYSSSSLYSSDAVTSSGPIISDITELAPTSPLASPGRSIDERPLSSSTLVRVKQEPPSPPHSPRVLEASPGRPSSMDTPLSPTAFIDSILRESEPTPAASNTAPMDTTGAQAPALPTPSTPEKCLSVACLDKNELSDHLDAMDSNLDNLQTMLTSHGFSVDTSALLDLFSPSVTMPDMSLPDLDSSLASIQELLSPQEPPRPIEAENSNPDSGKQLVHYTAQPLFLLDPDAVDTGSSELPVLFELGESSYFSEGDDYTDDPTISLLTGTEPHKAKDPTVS
As to the kind of experiment: HSF1 potentiators in luciferase reporter cells, confirmation, cell-based, NIH3T3, luminescence, dose retest (AID 435004).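 Further: stress induced by proteasome inhibitor MG132 added 30 min after compound; luciferase reporter driven by HSF1 response element in NIH3T3 cells; actives raise luminescence as potentiators of the MG132 stress response.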 Format: functional. A general note: A reporter such as luciferase makes a cellular process visible.

The nature of assay [4]: inhibitors of SNCA 5'UTR-driven reporter translation, confirmation, H4 neuroglioma cells, luminescence (AID 1988). Format: functional, cell-based.
Assay [5] is described as follows: inhibitors of firefly luciferase expression or activity, dose response, H4 neuroglioma cells, luminescence (AID 1990). Format: functional, cell-based.
Assay [6] has as its target Luciferin 4-monooxygenase (Photinus pyralis, UniProt P08659). The assay can be described thus: firefly luciferase enzyme inhibitors, dose response, biochemical, luminescence (AID 1891).
Assay [7] in a line: Luminescence Cell-Based Dose Confirmation HTS to Identify Inhibitors of Platelet Dense Granule Release. [Related pubchem assays: 1663 (Primary HTS), 1678 (Summary of Project)]. Type of assay: functional.
Assay [8] addresses T4, Replicative DNA helicase DnaB (Mycobacterium tuberculosis, UniProt P9WMR3).
T4 sequence (P9WMR3 whole entry): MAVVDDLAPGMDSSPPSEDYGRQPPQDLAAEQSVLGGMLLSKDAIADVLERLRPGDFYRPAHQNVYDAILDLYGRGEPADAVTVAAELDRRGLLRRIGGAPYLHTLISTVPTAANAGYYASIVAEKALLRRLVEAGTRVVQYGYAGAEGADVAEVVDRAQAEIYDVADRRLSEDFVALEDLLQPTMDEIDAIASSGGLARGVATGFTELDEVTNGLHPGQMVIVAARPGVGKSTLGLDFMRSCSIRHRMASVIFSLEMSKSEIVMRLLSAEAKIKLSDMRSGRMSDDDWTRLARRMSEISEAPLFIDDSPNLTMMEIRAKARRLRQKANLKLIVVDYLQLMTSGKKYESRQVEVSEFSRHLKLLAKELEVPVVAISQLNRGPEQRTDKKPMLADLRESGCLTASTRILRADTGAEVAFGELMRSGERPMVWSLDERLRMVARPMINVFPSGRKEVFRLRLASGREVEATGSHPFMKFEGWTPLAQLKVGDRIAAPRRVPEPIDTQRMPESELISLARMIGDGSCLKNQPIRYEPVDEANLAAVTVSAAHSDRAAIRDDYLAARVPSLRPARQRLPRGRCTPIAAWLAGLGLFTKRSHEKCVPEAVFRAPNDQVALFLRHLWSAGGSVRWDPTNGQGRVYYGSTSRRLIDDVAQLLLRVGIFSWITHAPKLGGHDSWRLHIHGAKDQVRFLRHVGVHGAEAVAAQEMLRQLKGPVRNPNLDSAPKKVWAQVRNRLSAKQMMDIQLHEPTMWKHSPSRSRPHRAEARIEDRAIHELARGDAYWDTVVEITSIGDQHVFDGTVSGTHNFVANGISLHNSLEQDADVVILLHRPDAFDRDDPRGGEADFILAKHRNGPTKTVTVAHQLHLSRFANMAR
The assay can be described thus: DnaB intein splicing inhibitors, dose response, biochemical, cell-free fluorescence (AID 449749). Type of assay: functional.

Assay [9] has as its target T5, Protein RecA (Mycobacterium tuberculosis, UniProt P9WHJ3).
T5 sequence (P9WHJ3 whole entry): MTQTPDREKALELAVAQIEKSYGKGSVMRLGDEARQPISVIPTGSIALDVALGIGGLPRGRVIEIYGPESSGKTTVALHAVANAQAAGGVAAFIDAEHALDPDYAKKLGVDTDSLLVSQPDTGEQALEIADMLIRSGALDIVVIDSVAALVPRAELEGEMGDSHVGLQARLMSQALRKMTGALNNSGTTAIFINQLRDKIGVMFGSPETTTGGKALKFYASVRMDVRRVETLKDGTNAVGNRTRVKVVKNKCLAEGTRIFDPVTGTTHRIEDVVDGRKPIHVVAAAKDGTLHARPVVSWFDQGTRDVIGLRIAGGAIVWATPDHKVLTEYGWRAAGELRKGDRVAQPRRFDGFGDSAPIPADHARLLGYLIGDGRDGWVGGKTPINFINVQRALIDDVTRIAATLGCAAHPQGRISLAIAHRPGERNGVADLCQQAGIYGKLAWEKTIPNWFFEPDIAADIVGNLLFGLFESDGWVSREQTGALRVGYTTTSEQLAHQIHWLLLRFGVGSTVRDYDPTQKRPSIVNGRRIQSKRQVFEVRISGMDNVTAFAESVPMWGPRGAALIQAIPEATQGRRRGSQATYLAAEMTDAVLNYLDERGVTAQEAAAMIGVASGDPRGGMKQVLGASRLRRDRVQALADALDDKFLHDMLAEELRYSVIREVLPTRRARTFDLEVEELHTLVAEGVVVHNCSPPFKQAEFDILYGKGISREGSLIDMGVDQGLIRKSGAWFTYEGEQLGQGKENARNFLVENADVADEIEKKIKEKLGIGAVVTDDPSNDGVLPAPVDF
As to the kind of experiment: Fluorescence Cell-Free Homogeneous Dose Retest to Identify Inhibitors of RecA-Intein Splicing Activity. [Related pubchem assays (depositor defined):AID2097, AID2223, AID489010, AID492950]. Type of assay: functional.

For assay [10], the system named is H4. The assay can be described thus: Luminescence Cell-Based Dose Response HTS to Identify Activators of 5'UTR Stem-Loop Driven Prion Protein mRNA Translation in H4 Neuroglioblastoma Cells. [Related pubchem assays: 1829 (Project Summary), 1814 (Primary HTS)]. Type of assay: functional. The settings on record: Homo sapiens.
Assay [11] in a line: Luminescence Cell-Based Dose Confirmation HTS to Identify Activators of 5'UTR Stem-Loop Driven Alpha-Synuclein mRNA Translation in H4 Neuroglioblastoma Cells. [Related pubchem assays: 1829 (Project Summary), 1814 (Primary HTS)]. Format: functional.
Assay [12] in a line: Luminescence Cell-Based Dose Response HTS to Identify Activators of Luciferase Translation or Activity in H4 […] Cells. [Related pubchem assays: 1829 (Project Summary), 1814 (Primary HTS)]. Type of assay: functional.

The EC50 is the concentration at which the effect is half-maximal. In general, AC50 refers to the concentration giving half of the maximal activity seen.

Calls of active or inactive are those of the source. For most assays here, no stated cut-off is given here; in the data, actives have a measured EC50 and inactives only a lower limit.

Chain of Luciferin 4-monooxygenase (P08659 whole entry): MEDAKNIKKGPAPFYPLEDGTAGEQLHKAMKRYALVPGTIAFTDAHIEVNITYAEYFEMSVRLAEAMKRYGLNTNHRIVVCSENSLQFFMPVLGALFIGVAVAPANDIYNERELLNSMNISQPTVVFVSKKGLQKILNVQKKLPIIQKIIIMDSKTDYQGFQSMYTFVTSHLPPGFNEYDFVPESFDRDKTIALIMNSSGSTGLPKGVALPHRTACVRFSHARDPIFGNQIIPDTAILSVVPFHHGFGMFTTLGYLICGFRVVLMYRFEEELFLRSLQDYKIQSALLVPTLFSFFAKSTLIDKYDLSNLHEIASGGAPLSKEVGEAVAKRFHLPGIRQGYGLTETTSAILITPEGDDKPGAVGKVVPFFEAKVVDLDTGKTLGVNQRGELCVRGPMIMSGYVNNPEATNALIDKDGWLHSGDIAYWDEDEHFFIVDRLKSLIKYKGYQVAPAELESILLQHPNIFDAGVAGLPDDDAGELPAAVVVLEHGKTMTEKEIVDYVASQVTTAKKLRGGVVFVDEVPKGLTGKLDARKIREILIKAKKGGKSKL

As to `C/C(NCc1ccc2c(c1)OCO2)=C1/C(=O)NC(=O)N(c2ccccc2)C1=O`, the EC50 in assay [1] and in [2] was > 300 µM (not active) throughout.

Turning to `COc1ccc(/C=C2/N=C(c3cccs3)OC2=O)cc1OC(C)C`, the EC50 is 41.1 µM (active) in assay [1] and > 300 µM (not active) in assay [2]. On to `O=C(c1cccnc1S)N1CCN(S(=O)(=O)c2ccc(Br)cc2Cl)CC1`, for which the EC50 in [3] is > 260 µM (inactive). Take `Cc1cccn2c(=O)c3cc(C(=O)NCCN4CCOCC4)c(=N)n(Cc4cccnc4)c3nc12`: the EC50 in assay [4] was 9.91 µM (active); in assay [5] it was 12.6 µM (active); in [1], 87.2 µM (active); in assay [2], > 300 µM (not active). In the case of `COc1ccc(N2CCN(c3nc4c(c(=O)n(C)c(=O)n4C)n3Cc3ccccc3)CC2)cc1`, the EC50 in assay [6] was 18 µM (active); in assay [7], > 112 µM (not active).

`CCN(CC)S(=O)(=O)c1ccc(N2CCN(S(=O)(=O)c3ccccc3C#N)CC2)nc1`: the AC50 in [8] was > 380 µM (inactive). The EC50 in assay [9] was > 380 µM (inactive). On to `COc1ccc(NC(S)=Nc2ccc3nccnc3c2)cc1`, for which the EC50 in assay [10] was 8.17 µM (active); in assay [11], > 120 µM (not active); in assay [12] it was 7.7 µM (active). For the compound `CCN1C(=O)c2cccc3c(S(=O)(=O)Nc4ncccc4C)ccc1c23`, in [3], the EC50 was > 260 µM (inactive).

For `COc1cc(CNCC(O)c2ccccc2)ccc1OCc1ccc(Cl)nc1` (stereo unspecified), the EC50 in [3] is > 260 µM (inactive). As for `COC(=O)c1ccccc1NC(=S)NC(=O)c1ccc(C)cc1`, the AC50 in [8] is 0.452 µM (active). Also, in assay [9], the EC50 is 0.239 µM (active). `COc1ccccc1NC(=O)CSc1nc2c(sc3ccccc32)c(=O)n1CCN(C)C`: the AC50 in [8] is 58.7 µM (active). For the same compound, the EC50 in assay [9] is 12.9 µM (active). As for `Cc1ccn2c(=O)nc(SCC(=O)Nc3cc(C)on3)nc2c1`, the EC50 in assay [1] and in assay [2] was > 300 µM (not active) each time. Consider `COC(=O)CCC(=O)OC1(C)C(=O)C2=COC(c3ccc(OC)cc3)=CC2=C(Br)C1=O` (stereo unspecified), for which the concentration giving a half-maximal response (EC50) was 33.1 µM (active) in [1] and 91.5 µM (active) in [2]. As for `CCOC(=O)c1c(NC(=O)COC(=O)c2ncc(Cl)c(Cl)c2Cl)sc(C(=O)N(C)C)c1C`, the AC50 in [8] is 14.1 µM (active). The EC50 in assay [9] was 45.5 µM (active). For `CCOCCCN=C(S)Nc1ccc2nc(N3CCOCC3)cc(C)c2c1`, the EC50 in [3] was > 260 µM (inactive).

Turning to `CS(=O)(=O)NNC(=O)Cn1nnc(-c2ccc(OCc3ccccc3Cl)cc2)n1`, the EC50 is > 120 µM (not active) in assay [10], 18.2 µM (active) in [11] and 25 µM (active) in assay [12]. Consider `COc1ccc(-c2cc(C(F)(F)F)nc(SCC(=O)N3CCOCC3)n2)cc1OC`, for which the EC50 in assay [6] was > 112 µM (not active); in [7], 15.8 µM (active). As for `CC1CCN(c2ccc(C=O)o2)CC1`, the EC50 in [3] is > 260 µM (inactive). Regarding `NS(=O)(=O)c1ccc(NC(=O)COC(=O)c2cn(-c3ccccc3)nc2-c2ccc(F)cc2)cc1`, the EC50 in assay [1] and in [2] was > 300 µM (not active) throughout. With `COc1ccc(C2C(C#N)=C(N)OC3=C2C(=O)CCC3)cc1Cn1nc(C)c([N+](=O)[O-])c1C` (stereo unspecified), the EC50 in assay [1] and in [2] was > 300 µM (not active) in each case. Take `Cc1cc(C)cc(NC(=O)CN2C(=O)NC(C)(c3ccccc3)C2=O)c1` (stereo unspecified): the EC50 in assay [3] was > 260 µM (inactive).

As for `Cn1c(SCc2cccc(C(F)(F)F)c2)nnc1-c1ccco1`, the EC50 in assay [3] is > 260 µM (inactive). As for `COC(=O)c1ccc(-n2cnc3ccccc32)nc1`, the EC50 in assay [10] is > 120 µM (not active); in assay [11] it was 14.1 µM (active); in assay [12], 16.1 µM (active). For the compound `Cc1cccc(CC(C)NC(=O)c2oc3c(F)cccc3c2C)n1` (stereo unspecified), the EC50 in assay [3] was > 260 µM (inactive). Consider `C(=N\Nc1nc(-c2ccccc2)cs1)/c1ccco1`, for which the EC50 in assay [10] is 33.2 µM (active); in assay [11] it was 5.18 µM (active); in assay [12] it was 7.64 µM (active). On to `COC(=O)c1ccc(CO/N=C2\CCCc3nonc32)cc1`, for which the values for the EC50 in assay [10], in assay [11] and in assay [12] were 12.9 µM (active), 92.4 µM (active) and 17.8 µM (active), respectively.
